Assays:
TNBS-induced colitis = test: TNBS colitis induction model; format: in vivo, C57Bl/6 mice
Experimental: Animals were housed ten per cage and had free access to standard mouse chow and tap water. For colitis induction, C57Bl/6 mice were anesthetized for 90-120 minutes and received an intra-rectal administration of TNBS (40 μL, 150 mg/kg; provided by Sigma-Aldrich, FR) dissolved in a 1:1 mixture of 0.9% NaCl with 100% ethanol. Control mice received a 1:1 mixture of 0.9% NaCl with 100% ethanol or a saline solution using the same technique. Animals were sacrificed 5 days after TNBS administration. The anti-inflammatory effects of compound 17 were tested by administering the compound once daily by subcutaneous injection, starting one day before colitis induction. Macroscopic, histology and biologic assessments of colitis were performed blindly by two investigators.
The colon of each mouse was examined under a dissecting microscope (magnification, ×5) to evaluate the macroscopic lesions according to the established so-called Wallace criteria. The Wallace score rates macroscopic lesions on a scale from 0 to 10 based on features reflecting inflammation, such as hyperemia, thickening of the bowel, and extent of ulceration (Wallace, J. L. et al. Gastroenterology 96(1):29-36 (1989)). A colon specimen located 2 cm above the anal canal was cut into three parts, one of which was fixed in 4% paraformaldehyde and embedded in paraffin. Sections stained with May-Grunwald-Giemsa were examined blindly by two investigators and scored according to the so-called Ameho criteria (Ameho, C. K. et al. Gut 41(4):487-493 (1997)). This grading on a scale from 0 to 6 takes into account the degree of inflammation infiltrate, the presence of erosion, ulceration, or necrosis, and the depth and surface extension of lesions.
Mice receiving TNBS injections had severe lesions five days after colitis induction, showing necrosis of the colon and leading to mortality in 70% of the mice. TNBS-induced colitis was characterized by hyperemia and extensive area of ulceration. These lesions were characterized by neutrophilic infiltration extending to the mucosa deep into the muscular layer. […]

DSS-induced colitis = test: Dextran sulfate sodium (DSS) colitis induction model; format: in vivo, mice; conditions: preventive treatment, 10^−1 mg/kg/d, 5% DSS for seven days
Experimental: Mice were fed 5% DSS (molecular weight 30-40 kDa) for seven days. DSS was dissolved in sterile distilled water and given ad libitum throughout the experiment. Stool consistency, occult blood or the presence of macroscopic rectal bleeding gross were determined daily and blindly by two experiment investigators, as described previously (Hartmann et al., J Pharmacol Exp Ther., 292(1):22-30 (2000)). […] Bleeding was scored 0 point for no blood in hemoccult, 2 points for positive hemoccult, and 4 points for gross bleeding from the rectum. These scores were added, resulting in a total clinical score ranging from 0 (healthy) to 8 (maximal activity of colitis). […] For cell infiltration of inflammatory cells, rare inflammatory cells in the lamina propria were counted as 0; increased numbers of inflammatory cells, including neutrophils in the lamina propria as 1; confluence of inflammatory cells, extending into the submucosa as 2; and a score of 3 was given for transmural extension of the inflammatory cell infiltrate. For epithelial damage, absence of mucosal damage was counted as 0, discrete focal lymphoepithelial lesions were counted as 1, mucosal erosion/ulceration was counted as 2, and a score of 3 was given for extensive mucosal damage and extension through deeper structures of the bowel wall. […]

NC(=O)CCCN(CCCC1CCCCC1)C(=O)Nc1ccccc1 [Compound 17, 4-[1-(3-cyclohexylpropyl)-3-phenylureido]butyramide]
Ameho score (histology, scale 0 to 6) (TNBS-induced colitis; 10^−1 mg/kg/d subcutaneously once daily, starting one day before colitis induction, five days after TNBS administration, untreated TNBS mice 5.3±0.15): 3.9±0.62
Wallace score (macroscopic lesions, scale 0 to 10) (TNBS-induced colitis; 10^−1 mg/kg/d subcutaneously once daily, starting one day before colitis induction, five days after TNBS administration, untreated TNBS mice 7.0±0.37): 3.8±0.89
mortality rates (TNBS-induced colitis; 10^−1 mg/kg/d subcutaneously, TNBS-induced colitis, mortality in 70% of untreated TNBS mice): not associated with a significant improvement of mortality rates
scores for clinical parameters (stool consistency + bleeding, 0 to 8) (DSS-induced colitis; untreated 3.7±0.14, P=0.003): 2.8±0.13
histologic score (0 to 6) (DSS-induced colitis; untreated 5.8±0.13, P=0.001): 3.9±0.39
